Measurements taken from PubChem BioAssay (NCI).
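Briefly, cells in 96-well plates were exposed to five compound concentrations for 48 h, and endpoints were estimated by linear interpolation. The concentration for 50% growth inhibition is given as GI50. TGI marks complete inhibition of growth.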

Legend:
Experiment in all cases: growth of human tumour cells (NCI), 48 h
OVCAR-8 ovarian = test system: OVCAR-8 ovarian
SR leukemia = test system: SR leukemia
HL-60(TB) leukemia = test system: HL-60(TB) leukemia
SN12C renal = test system: SN12C renal
KM12 colon = test system: KM12 colon
A549 NSCLC = test system: A549 NSCLC
SK-MEL-28 melanoma = test system: SK-MEL-28 melanoma
786-0 renal = test system: 786-0 renal
CAKI-1 renal = test system: CAKI-1 renal
NCI/ADR-RES ovarian = test system: NCI/ADR-RES ovarian
HS 578T breast = test system: HS 578T breast

Compound	TGI (OVCAR-8 ovarian) [µM]	TGI (SR leukemia) [µM]	TGI (HL-60(TB) leukemia) [µM]	TGI (SN12C renal) [µM]	TGI (KM12 colon) [µM]	TGI (A549 NSCLC) [µM]	TGI (SK-MEL-28 melanoma) [µM]	TGI (786-0 renal) [µM]	TGI (CAKI-1 renal) [µM]	TGI (NCI/ADR-RES ovarian) [µM]	TGI (HS 578T breast) [µM]	GI50 (OVCAR-8 ovarian) [µM]	GI50 (HL-60(TB) leukemia) [µM]	GI50 (SN12C renal) [µM]	GI50 (KM12 colon) [µM]	GI50 (CAKI-1 renal) [µM]	GI50 (A549 NSCLC) [µM]	GI50 (SK-MEL-28 melanoma) [µM]	GI50 (NCI/ADR-RES ovarian) [µM]
CC1OC=CC(=O)C1O (stereo not given)	> 100	> 100	> 100	> 100	> 100	> 100	> 100												
C=C(C(=O)OC)[C@H]1CC/C(C)=C/CC/C(C)=C/CC[C@@]2(C)O[C@@H]2C1	31.4		30.9	31.2	37.6	37.4	> 100	29.2	28.1	52.1									
CC(C)c1nccn1Cc1ccc(Cl)cc1Cl	> 100	> 100		88.7	> 100	> 100	> 100	> 100	> 100	> 100									
c1ccc(COc2cccc3cccnc23)cc1	> 100		57.5	> 100	> 100	> 100	> 100	> 100											
C[n+]1c(-c2ccc(/C=N/Nc3ccnc(N/N=C/c4ccc(-c5cn6ccccc6[n+]5C)cc4)n3)cc2)cn2ccccc21	> 100	> 100	65.7	> 100	> 100	> 100	95.8	> 100		> 100	93.1								
CN(CCN(C)C(=O)CCn1ccc(=O)[nH]c1=O)C(=O)CCn1ccc(=O)[nH]c1=O	> 100	> 100	> 100	> 100	> 100	> 100	> 100	> 100											
O=C(NC/C=C/Br)NC1CCNc2ccccc21 (stereo not given)	> 100	61.8	> 100	> 100	> 100	> 100	> 100	81.9	> 100	99.7									
C=C1CC(OC)(C(O)C(=O)N[C@H]2OCO[C@H]3C2O[C@H](C[C@H](O)COC)C(C)(C)C3OC)O[C@H](C)[C@@H]1C (stereo not given in full)	> 0.00772			> 0.00772		> 0.00772	> 0.00772			> 0.00772									
O=S(=O)(/N=C1/SC(=Nc2ccccc2)N(c2ccccc2)/C1=N/S(=O)(=O)c1ccccc1)c1ccccc1	62.6	50.6	45.1	31.5	71	69	34	41.1			> 100								
S=C(Nc1ccc2c(c1)Cc1ccccc1-2)Nc1ccc2c(c1)Cc1ccccc1-2	> 100		22.4	> 100	> 100	> 100	> 100	> 100	> 100	> 100	> 100								
c1ccc(-c2[nH]c(-c3ccccc3)c(-c3cnccn3)c2-c2cnccn2)cc1	> 100	> 100	> 100	> 100	> 100	> 100	> 100	> 100	> 100										
CC1(C)Oc2ccc3c(=O)c4ccccc4oc3c2C1C(=O)O (stereo not given)	> 100			> 100		> 100		> 100	> 100	> 100	> 100								
CC1(C)CC(=O)C(=CN2C(=O)CNC2=S)C(=O)C1	> 100		> 100	> 100	> 100	> 100		> 100	> 100	> 100	> 100								
Oc1ccc2ccccc2c1OCc1nnc(CCCCCCCCc2nnc(COc3c(O)ccc4ccccc34)o2)o1				> 100	> 100	> 100	> 100	> 100	> 100	> 100									
O=c1oc2ccccc2c(O)c1Cc1cccc(Cc2c(O)c3ccccc3oc2=O)c1	> 100		> 100	> 100	> 100	> 100	> 100	> 100	> 100	> 100	> 100								
COc1ccc(NC(=S)NNC(=O)c2cc(-c3ccccc3)nc3ccccc23)cc1	38.9	9.79		48.6	> 100	47	43.3	40.5	60	35.5	75.5								
NC1CCCCC1N.O=S(=O)([O-])CCCN1CCN(CCO)CC1.O=S(=O)([O-])CCCN1CCN(CCO)CC1.[Pt+4]	> 100		11.6	> 100	> 100	> 100	29.8		9.16	> 37		2.78	0.132	7.56	13.2	0.856	4.7	8.22	1.47
CC(=O)[C@H]1CCC2[C@@H]3CC=C4C(O)C(OS(=O)(=O)O)CC[C@]4(C)C3CC[C@@]21C (stereo not given in full)	> 100		> 31.6	> 100	> 100	> 100	> 100		> 100	> 100									
CC1(C)O[C@@H](CP(c2cccc3ccccc23)c2cccc3ccccc23)[C@H](CP(c2cccc3ccccc23)c2cccc3ccccc23)O1	> 100	> 100		> 100	> 100	> 100	> 100	> 100	> 100	> 100									
CCOC(=O)c1c(-c2ccc(OC)c(O)c2)c(C#N)c(=S)n(C2OC(CO)C(O)C(O)C2O)c1-c1ccccc1 (stereo not given)		> 100		> 100	> 100	> 100	> 100	> 100	> 100	> 100	> 100								
CC(C)CC(NC(=O)C(COc1ccc([N+](=O)[O-])cc1)Cc1ccccc1)C(=O)Nc1ccccc1 (stereo not given)	27.4	> 100	> 100	> 100	21.5	69.2		29.5	83.8	43.3									
Cc1ccc([N+](=O)[O-])cc1NC(=O)C(=O)C1CCC2=C(Sc3ccccc3N2)C1=O (stereo not given)	> 100		> 100	> 100	> 100	> 100	> 100	> 100	> 100	> 100	> 100								

Compound	TGI (OVCAR-8 ovarian) [µM]	TGI (SR leukemia) [µM]	TGI (HL-60(TB) leukemia) [µM]	TGI (SN12C renal) [µM]	TGI (KM12 colon) [µM]	TGI (A549 NSCLC) [µM]	TGI (SK-MEL-28 melanoma) [µM]	TGI (786-0 renal) [µM]	TGI (CAKI-1 renal) [µM]	TGI (NCI/ADR-RES ovarian) [µM]	TGI (HS 578T breast) [µM]	GI50 (OVCAR-8 ovarian) [µM]	GI50 (HL-60(TB) leukemia) [µM]	GI50 (SN12C renal) [µM]	GI50 (KM12 colon) [µM]	GI50 (CAKI-1 renal) [µM]	GI50 (A549 NSCLC) [µM]	GI50 (SK-MEL-28 melanoma) [µM]	GI50 (NCI/ADR-RES ovarian) [µM]
COC1=CC(=O)c2c(cc(COP(=O)(N(C)CCBr)N(C)CCBr)n2C)C1=O	3.98		> 100	3.76	24.1	7.18	3.51	2.87	2.26	16.7	5.04								
CCCCCCc1cn([C@H]2C[C@H](O)[C@@H](CO)O2)c(=O)[nH]c1=O	> 100		> 100	> 100	> 100	> 100	> 100		> 100	> 100									
O=C1OC(c2ccccc2)=N/C1=C/N1CCCC1C(=O)O (stereo not given)	> 100		> 100		> 100	> 100	> 100	> 100	> 100										
O=C(NCCCCNCCCNC(=O)OCc1ccccc1)OCc1ccccc1	67.1	92.3	60.4	> 100	98.5	> 100	40	55.5		> 100	88.8								
C/C(=C\c1ccccc1)C(=O)NCc1ccc(C(=O)NCCc2c[nH]c3ccccc23)cc1	> 100	> 100		> 100	> 100	> 100	> 100	> 100	> 100	> 100									
O=c1/c(=C/c2ccc(-c3ccc(Cl)cc3Cl)o2)sc2n1[C@@H](c1ccc3c(c1)OCO3)C=C(c1cc(F)c(Cl)cc1Cl)N=2	> 100		> 100	> 100	> 100	> 100	> 100	> 100	> 100	> 100	> 100								
CC(=O)O[C@H]1C(=O)[C@@]2(C)C(C(OC(=O)c3ccccc3)[C@]3(O)CC(OC(=O)C(O)C(NC(=O)c4ccccc4)c4ccc(C)cc4)C(C)=C1C3(C)C)[C@]1(OC(C)=O)CO[C@@H]1C[C@@H]2O (stereo not given in full)	1.01		2.55	> 25	9.9	21.5		6.68	12.1										
CCOC(=O)N1C(=S)C(C(=O)OC)(C(=O)OC)N=C1C	> 100	> 100	> 100	> 100	> 100	> 100	> 100	> 100	> 100	> 100									
CCOC(=O)C1=C(C)N(c2ccc(C)cc2)C2(O)C=CC(=O)C3=C(O)c4ccccc4C(=O)C312 (stereo not given)	> 100	2.6	0.039	> 100	> 100	> 100	60.2	> 100	> 100	> 100									
Cc1ccc2c(=O)c(C(=O)N(CCO)CCO)c[nH]c2n1	> 100		> 100	> 100	> 100	> 100	> 100	> 100	> 100	> 100	> 100								
O=C(O)CCCc1ccc2c(c1)CC1(C2)Cc2ccc(CCCC(=O)O)cc2C1	> 100	> 100	> 100	> 100	> 100	> 100		> 100		> 100	> 100								
CC1(C)N=C(N)N=C(N)N1c1ccc(OCCCOc2ccccc2)c(Cl)c1	14.5			14.9	12.3	> 100	9.16		44.3	> 100									
CN(C)c1ccc(/C=C2\C[C@H]3[C@@H]4CCc5cc(O)ccc5[C@H]4CC[C@]3(C)C2=O)cc1	> 100	> 100			> 100	> 100	> 100		> 100	> 100	30.5								
COc1cccc2c1[C@]1(O)C(O)CCCC21 (stereo not given in full)	> 100			> 100	> 100	> 100	> 100	> 100	> 100										
O=C(/C=C/c1ccccc1)CCc1c(O)c2ccccc2oc1=O	> 100			> 100	> 100	> 100	> 100	> 100	> 100	> 100	> 100								
c1ccc(CNc2ncnc3n[nH]nc23)cc1	> 100		> 100	> 100	> 100	> 100	> 100	> 100	> 100	> 100									
COc1cc(S(=O)(=O)N/N=C/c2cc(Br)c(O)c(OC)c2)c(OC)cc1NC(C)=O	> 100	> 100	58	> 100	> 100	> 100	> 100	66.5	> 100	> 100									
O=C1OC2C=CC1C1(CCOC1=O)C2 (stereo not given)	> 100	> 100	> 100	> 100	> 100	> 100	> 100	> 100	> 100										
COC(=O)C1=C(C)NC2(C)OC(C)(O)C(C(C)=O)C12C(C)=O (stereo not given)	> 100		> 100	> 100	> 100	> 100	> 100	> 100	> 100	> 100	65.1								
CC1(C)CC2(C)OC(=N)C1(C#N)C2(C#N)C#N (stereo not given)	46.8		15.6	21.7	29.4	60		16.7	12.3	29.5	37.7								
O=C1C(=Cc2ccccc2[N+](=O)[O-])N=C(c2ccccc2)N1n1c(-c2ccccc2)nc2ccccc2c1=O	78.7	> 100		87.3	66.2	> 100	> 100	> 100	> 100	62.6	86								
